Columns and labels:
[1] = Formation of the compound in a brimonidine tartrate / timolol maleate composition stored at ambient temperature (age of composition); type: physicochemical; settings: for Compound Concentration (% weight/vol): composition initially 0.2% brimonidine tartrate and 0.68% timolol maleate, pH 6.9, ambient temperature
Experimental: The compound disclosed herein can also be used to estimate the age of a composition, stored at ambient temperature, initially comprising brimonidine tartrate and timolol maleate of known amounts and having a pH of 6.9. The age of the […] (λ) in months is determined by equation 3, where B^o, T^o, and C^o are the initial concentrations of brimonidine, timolol maleate, and the compound respectively, in % (w/v). λ=C^o/(1.1×10^−3(B^oT^o)) [eq. 3] Equation 3 is an approximation which assumes that B^o and T^o>>C^o. If that is not the case, the age is determined using the rate constant k=1.1×10^−3 month^−1%^−1 and the appropriate rate expression.
If the composition initially comprises 0.2% brimonidine tartrate and 0.68% timolol maleate. The age of the composition may be determined according to Table 2 below. Alternatively, up to about 36 months, the age is determined by multiplying the concentration of the compound in % (w/v) by 9100.

microbial attack [2] = settings: cited from earlier work
microbial attack [3] = assay: Preservation of ophthalmic compositions from microbial attack; settings: brimonidine/timolol compositions of the invention
From the text: Ophthalmic products are typically packaged in multidose form. Preservatives are thus required to prevent microbial contamination during use. Suitable preservatives include: benzalkonium chloride, thimerosal, chlorobutanol, methyl paraben, propyl paraben, phenylethyl alcohol, edetate disodium, sorbic acid, Onamer M, or other agents known to those skilled in the art. In the prior art ophthalmic products, typically such preservatives are employed at a level of from 0.004% to 0.02%. In the compositions of the present application the preservative, preferably benzalkonium chloride, may be employed at a level of from 0.001% to less than 0.01%, e.g. from 0.001% to 0.008%, preferably about 0.005% by weight. […] This concentration may be advantageously compared to the requirement of 0.01% benzalkonium chloride to preserve timolol in the individual, commercially-available ophthalmic products.

## O=C(O)C1CC(=O)N2CCN=C2N1c1ccc2nccnc2c1Br (stereo not drawn) [Compound, 8-(5-bromoquinoxalin-6-yl)-5-oxo-2,3,5,6,7,8-hexahydroimidazo[1,2-a]pyrimidine-7-carboxylic acid]
[1]; Age 1 month
  Compound Concentration (% weight/vol): 0.0001 % weight/vol
[1]; Age 2 months
  Compound Concentration (% weight/vol): 0.0002 % weight/vol
[1]; Age 3 months
  Compound Concentration (% weight/vol): 0.0003 % weight/vol
[1]; Age 4 months
  Compound Concentration (% weight/vol): 0.0004 % weight/vol
[1]; Age 5 months
  Compound Concentration (% weight/vol): 0.0006 % weight/vol
[1]; Age 6 months
  Compound Concentration (% weight/vol): 0.0007 % weight/vol
[1]; Age 7 months
  Compound Concentration (% weight/vol): 0.0008 % weight/vol
[1]; Age 8 months
  Compound Concentration (% weight/vol): 0.0009 % weight/vol
[1]; Age 9 months
  Compound Concentration (% weight/vol): 0.001 % weight/vol
[1]; Age 10 months
  Compound Concentration (% weight/vol): 0.0011 % weight/vol
[1]; Age 11 months
  Compound Concentration (% weight/vol): 0.0012 % weight/vol
[1]; Age 12 months
  Compound Concentration (% weight/vol): 0.0013 % weight/vol
[1]; Age 13 months
  Compound Concentration (% weight/vol): 0.0014 % weight/vol
[1]; Age 14 months
  Compound Concentration (% weight/vol): 0.0016 % weight/vol
[1]; Age 15 months
  Compound Concentration (% weight/vol): 0.0017 % weight/vol
[1]; Age 16 months
  Compound Concentration (% weight/vol): 0.0018 % weight/vol
[1]; Age 17 months
  Compound Concentration (% weight/vol): 0.0019 % weight/vol
[1]; Age 18 months
  Compound Concentration (% weight/vol): 0.0020 % weight/vol
[1]; Age 19 months
  Compound Concentration (% weight/vol): 0.0021 % weight/vol
[1]; Age 20 months
  Compound Concentration (% weight/vol): 0.0022 % weight/vol
[1]; Age 21 months
  Compound Concentration (% weight/vol): 0.0023 % weight/vol
[1]; Age 22 months
  Compound Concentration (% weight/vol): 0.0024 % weight/vol
[1]; Age 23 months
  Compound Concentration (% weight/vol): 0.0026 % weight/vol
[1]; Age 24 months
  Compound Concentration (% weight/vol): 0.0027 % weight/vol
[1]; composition stored at ambient temperature, pH 6.9
  rate constant k (formation of the compound from brimonidine tartrate and timolol maleate): 1.1×10^−3 month^−1%^−1

## benzalkonium chloride
Microbial attack [2]
  concentration required to preserve timolol in the individual, commercially-available ophthalmic products: 0.01%
Microbial attack [3]
  concentration sufficient to preserve the compositions of the present invention from microbial attack: 0.005%

From patent US7960382B2, “Compounds and their use related to compositions for treating disease” (Allergan, Inc., priority 2005, dated 2011)
